Active and inactive are the calls of the source. The rule behind the calls is not given here.
What was measured:
Format in all cases: nucleic-acid assay
Nucleic Acid [1] = assay: Binding affinity to ACGCGT DNA assessed as change in melting temperature by thermal denaturation assay
Nucleic Acid [2] = assay: Binding affinity to AAATTT DNA assessed as change in melting temperature by thermal denaturation assay
Nucleic Acid [3] = assay: Binding affinity to ATGCAT DNA assessed as change in melting temperature by thermal denaturation assay
Nucleic Acid [4] = assay: Binding affinity to ACGCGT DNA by SPR assay
Nucleic Acid [5] = assay: Binding affinity to ACGCGT DNA by ITC assay
Nucleic Acid [6] = assay: Binding affinity to AAATTT DNA by SPR assay
Nucleic Acid [7] = assay: Binding affinity to ACATGT DNA by SPR assay

Row | Compound | ΔTm (Nucleic Acid [1]) | ΔTm (Nucleic Acid [2]) | ΔTm (Nucleic Acid [3]) | Ke (Nucleic Acid [4]) | Activity (Nucleic Acid [5]) | Ke (Nucleic Acid [6]) | Ke (Nucleic Acid [7])
1 | CN(C)CCNC(=O)c1nc(NC(=O)c2cc(NC(=O)c3nc(NC=O)cn3C)cn2CCCN)cn1C | > 24 °C | 10 °C | 24 °C | 2.4 ×10⁸ /M | Active |  | 
2 | CN(C)CCNC(=O)c1nc(NC(=O)c2cc(NC(=O)c3nc(NC=O)cn3CCCN)cn2C)cn1C | > 20 °C | 11 °C | 20 °C | 2.3 ×10⁷ /M | Active | 2.2 ×10⁶ /M | 3.7 ×10⁶ /M
3 | CN(C)CCNC(=O)c1nc(NC(=O)c2cc(NC(=O)c3nc(NC=O)cn3C)cn2C)cn1C | 7.8 °C | 1 °C |  | 1.9 ×10⁸ /M | Active | 5.3 ×10⁴ /M | 

Reference: ChEMBL document CHEMBL2069255, “Synthesis and DNA binding properties of 1-(3-aminopropyl)-imidazole-containing triamide f-Im*PyIm: a novel diamino polyamide designed to target 5'-ACGCGT-3'” (Bioorg Med Chem Lett, 2012)
